Results reported in patent US11332459B2 (TEIJIN PHARMA LIMITED, priority 2017, dated 2022).
Where a name gives a salt, the structure may show the parent alone.

target: T1, human TRPC6 (Homo sapiens, UniProt Q9Y210); assay: TRPC6 calcium flux assay (FLIPR, OAG-stimulated calcium influx); assay type: cell-based; details: HEK293 cells stably transfected with human TRPC6, read-out: hTRPC6 Potency
T1 construct: expressed in transfected cells
T1 sequence (Q9Y210 1-931): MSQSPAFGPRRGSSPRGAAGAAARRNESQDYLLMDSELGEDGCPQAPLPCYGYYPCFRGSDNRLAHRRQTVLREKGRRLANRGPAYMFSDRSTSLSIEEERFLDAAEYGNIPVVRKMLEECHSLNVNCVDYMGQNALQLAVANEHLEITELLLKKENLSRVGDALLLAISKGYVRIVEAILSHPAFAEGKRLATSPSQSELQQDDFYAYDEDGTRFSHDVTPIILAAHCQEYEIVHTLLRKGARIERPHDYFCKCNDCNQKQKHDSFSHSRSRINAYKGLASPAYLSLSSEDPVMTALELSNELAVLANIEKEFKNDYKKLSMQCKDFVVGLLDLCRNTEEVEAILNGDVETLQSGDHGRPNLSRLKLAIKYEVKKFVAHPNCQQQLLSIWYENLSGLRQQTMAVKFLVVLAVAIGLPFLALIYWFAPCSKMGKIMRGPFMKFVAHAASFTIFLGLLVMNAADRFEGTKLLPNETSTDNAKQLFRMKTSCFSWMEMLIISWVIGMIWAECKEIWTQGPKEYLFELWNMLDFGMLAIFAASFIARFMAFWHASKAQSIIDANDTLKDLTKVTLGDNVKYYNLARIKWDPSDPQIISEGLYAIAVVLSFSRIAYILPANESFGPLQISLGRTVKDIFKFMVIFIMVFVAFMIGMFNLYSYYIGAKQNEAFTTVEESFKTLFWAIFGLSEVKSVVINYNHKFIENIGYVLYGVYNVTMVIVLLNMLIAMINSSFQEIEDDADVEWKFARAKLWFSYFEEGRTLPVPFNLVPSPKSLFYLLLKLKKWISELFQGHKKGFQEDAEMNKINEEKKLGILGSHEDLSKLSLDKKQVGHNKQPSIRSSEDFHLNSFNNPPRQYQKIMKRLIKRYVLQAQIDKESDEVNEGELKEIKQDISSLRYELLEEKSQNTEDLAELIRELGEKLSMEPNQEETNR
Summary of the method: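 IC50 derived by plotting background-corrected peak fluorescence (180 s window, normalized to OAG-triggered signal vs buffer) against dose. Stable human TRPC6 HEK293 line was dye-loaded, exposed to compound 25 min, then challenged with 50 uM final OAG in 2 mM Ca2+ HEPES buffer pH 7.2, 0.5% DMSO.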

Question: Which IC50 does the source give for `N[C@@H]1CN(c2nc3ccc(F)cc3n2CC(=O)N2CCC2)CC[C@H]1F` [Example 503, 2-(2-((3R,4R)-3-amino-4-fluoropiperidin-1-yl)-6-fluoro-1H-benzo[d]imidazol-1-yl)-1-(azetidin-1-yl)ethan-1-one] here?
Answer: The IC50 was 25.6 nM.

Question: Which IC50 does the source give for `CNC(=O)C1CCN(C(=O)Cn2c(N3CC[C@@H](F)[C@H](N)C3)nc3cc(F)c(F)cc32)CC1` [Example 534, 1-(2-(2-((3R,4R)-3-amino-4-fluoropiperidin-1-yl)-5,6-difluoro-1H-benzo[d]imidazol-1-yl)acetyl)-N-methylpiperidine-4-carboxamide] here?
Answer: The IC50 was over 3750 nM.

Question: Which IC50 does the source give for `C[C@@H](c1ccc(Cl)cn1)n1c(N2CC[C@@H](F)[C@H](N)C2)nc2ccc(Cl)cc21` [Example 222, (3R,4R)-1-(6-chloro-1-((S)-1-(5-chloropyridin-2-yl)ethyl)-1H-benzo[d]imidazol-2-yl)-4-fluoropiperidin-3-amine hydrochloride] here?
Answer: Its IC50 is 2.04 nM.

Question: How did the IC50 turn out when `N#Cc1ccc(Cn2c(N3CC[C@H](F)[C@H](N)C3)nc3cc(C(F)(F)F)ccc32)nc1` [Example 107, 6-((2-((3R,4S)-3-amino-4-fluoro-1-piperidinyl)-5-(trifluoromethyl)-1H-benzimidazol-1-yl)methyl)-3-pyridinecarbonitrile] was run?
Answer: Its IC50 is 7.88 nM.

Question: For `N#Cc1ccc(Cn2c(N3CC[C@H](F)[C@H](N)C3)nc3cc(F)c(F)cc32)nc1` [Example 83, 6-((2-((3R,4S)-3-amino-4-fluoropiperidin-1-yl)-5,6-difluoro-1H-benzo[d]imidazol-1-yl)methyl)nicotinonitrile hydrochloride], which IC50 is on record?
Answer: Its IC50 is 0.906 nM.

Question: How did the IC50 turn out when `N#Cc1ccc(Cn2c(N3C[C@H]4CC[C@@H](N)[C@H]4C3)nc3ccccc32)nc1` [Example 76, 6-((2-((3aR,4R,6aS)-4-aminohexahydrocyclopenta[c]pyrrol-2(1H)-yl)-1H-benzo[d]imidazol-1-yl)methyl)nicotinonitrile hydrochloride] was run?
Answer: The IC50 was 971 nM.

Question: With `C[C@H](c1ccc(Cl)cn1)n1c(N2CC[C@@H](F)[C@H](N)C2)nc2ccccc21` [Example 215, (3R,4R)-1-(1-((R)-1-(5-chloropyridin-2-yl)ethyl)-1H-benzo[d]imidazol-2-yl)-4-fluoropiperidin-3-amine hydrochloride] as the compound, how does the IC50 read?
Answer: Its IC50 is 593 nM.

Question: With `N[C@@H]1CN(c2nc3cc(F)c(F)cc3n2CC(=O)N2CCN(c3ncccn3)CC2)CC[C@H]1F` [Example 624, 2-(2-((3R,4R)-3-amino-4-fluoropiperidin-1-yl)-5,6-difluoro-1H-benzo[d]imidazol-1-yl)-1-(4-(pyrimidin-2-yl)piperazin-1-yl)ethanone] as the compound, how does the IC50 read?
Answer: Its IC50 is 102 nM.

Question: For `N[C@@H]1CN(c2nc3ccccc3n2Cc2ccc(Cl)cn2)CCC1(F)F` [Example 85, (R)-1-(1-((5-chloropyridin-2-yl)methyl)-1H-benzo[d]imidazol-2-yl)-4,4-difluoropiperidin-3-amine hydrochloride], which IC50 is on record?
Answer: Its IC50 is 7.55 nM.

Question: For `N[C@@H]1CN(c2nc3cc(F)c(F)cc3n2CC(=O)O)CC[C@H]1F` [Example 437, 2-(2-((3R,4R)-3-amino-4-fluoropiperidin-1-yl)-5,6-difluoro-1H-benzo[d]imidazol-1-yl)acetic acid], which IC50 is on record?
Answer: The IC50 was over 3750 nM.

Question: For `CN(CC(F)F)C(=O)Cn1c(N2CC[C@@H](F)[C@H](N)C2)nc2cc(F)c(F)cc21` (single isomer, unassigned) [Example 634], which IC50 is on record?
Answer: Its IC50 is 260 nM.

Question: Which IC50 does the source give for `N[C@@H]1CN(c2nc3cc(F)c(F)cc3n2Cc2ccccc2OC(F)F)CC[C@H]1F` [Example 348, (3R,4R)-1-(1-(2-(difluoromethoxy)benzyl)-5,6-difluoro-1H-benzimidazol-2-yl)-4-fluoro-3-piperidinamine] here?
Answer: The IC50 was 493 nM.

Question: How did the IC50 turn out when `CN1CC[C@H](n2c(N3CC[C@@H](F)[C@H](N)C3)nc3cc(F)c(F)cc32)C1=O` [Example 245, (S)-3-(2-((3R,4R)-3-amino-4-fluoropiperidin-1-yl)-5,6-difluoro-1H-benzo[d]imidazol-1-yl)-1-methylpyrrolidin-2-one] was run?
Answer: The IC50 was 62.5 nM.

Question: How did the IC50 turn out when `CN[C@H]1CCCN(c2nc3ccccc3n2Cc2ccc(Cl)cn2)C1` [Example 254, (3S)-1-(1-((5-chloro-2-pyridinyl)methyl)-1H-benzimidazol-2-yl)-N-methyl-3-piperidinamine] was run?
Answer: Its IC50 is 73.9 nM.

Question: With `C[C@H](c1ccccn1)N(C)C(=O)Cn1c(N2CC[C@@H](F)[C@H](N)C2)nc2cc(F)c(F)cc21` [Example 604] as the compound, how does the IC50 read?
Answer: Its IC50 is 7.78 nM.

Question: For `N#Cc1ccc(Cn2c(N3CC[C@H](F)[C@@H](N)C3)nc3ccccc32)nc1` [Example 16, 6-((2-((3S,4S)-3-amino-4-fluoropiperidin-1-yl)-1H-benzo[d]imidazol-1-yl)methyl)nicotinonitrile], which IC50 is on record?
Answer: Its IC50 is 224 nM.

Question: `N#Cc1ccc2c(c1)nc(N1CC[C@@H](F)[C@H](N)C1)n2Cc1ncc(Br)cn1` [Example 201, 2-((3R,4R)-3-amino-4-fluoropiperidin-1-yl)-1-((5-bromopyrimidin-2-yl)methyl)-1H-benzo[d]imidazole-5-carbonitrile] was tested. Which IC50 did it give?
Answer: Its IC50 is 43.9 nM.

Question: `N#Cc1ccc(Cn2c(N3CCC(F)(F)[C@H](N)C3)nc3ccccc32)nc1` [Example 212, (R)-6-((2-(3-amino-4,4-difluoropiperidin-1-yl)-1H-benzo[d]imidazol-1-yl)methyl)nicotinonitrile hydrochloride] was tested. Which IC50 did it give?
Answer: Its IC50 is 3.5 nM.

Question: For `CO[C@@H]1CCN(c2nc3ccc(F)cc3n2Cc2ccc(C#N)cn2)C[C@H]1N` [Example 451], which IC50 is on record?
Answer: Its IC50 is 0.613 nM.

Question: With `CN(C)C(=O)Cn1c(N2CC[C@@H](F)[C@H](N)C2)nc2cc(OC(F)(F)F)ccc21` [Example 474, 2-(2-((3R,4R)-3-amino-4-fluoropiperidin-1-yl)-5-(trifluoromethoxy)-1H-benzo[d]imidazol-1-yl)-N,N-dimethylacetamide] as the compound, how does the IC50 read?
Answer: The IC50 was 411 nM.

Question: For `N#Cc1ccc(Cn2c(N3CCC[C@@](N)(CO)C3)nc3ccccc32)nc1` [Example 104, (S)-6-((2-(3-amino-3-(hydroxymethyl)piperidin-1-yl)-1H-benzo[d]imidazol-1-yl)methyl)nicotinonitrile], which IC50 is on record?
Answer: The IC50 was 61.8 nM.

Question: `N#Cc1ccc(Cn2c(N3CC[C@@H](F)[C@H](N)C3)nc3c(Cl)cccc32)nc1` [Example 4] was tested. Which IC50 did it give?
Answer: The IC50 was 1.67 nM.

Question: For `N#Cc1ccc(Cn2c(N3CCC[C@@H](N)C3)nc3ccccc32)nc1` [Example 291, (R)-6-((2-(3-aminopiperidin-1-yl)-1H-benzo[d]imidazol-1-yl)methyl)nicotinonitrile], which IC50 is on record?
Answer: Its IC50 is over 3750 nM.

Question: Which IC50 does the source give for `N#Cc1ccc(Cn2c(N3CC[C@H](F)[C@H](N)C3)nc3cc(C#N)ccc32)nc1` [Example 69, 2-((3R,4S)-3-amino-4-fluoropiperidin-1-yl)-1-((5-cyanopyridin-2-yl)methyl)-1H-benzo[d]imidazole-5-carbonitrile] here?
Answer: Its IC50 is 14.7 nM.

Question: With `N[C@@H]1CN(c2nc3cc(F)c(F)cc3n2Cc2ccc(C(F)(F)F)cc2)CC[C@H]1F` [Example 361, (3R,4R)-1-(5,6-difluoro-1-(4-(trifluoromethyl)benzyl)-1H-benzimidazol-2-yl)-4-fluoro-3-piperidinamine] as the compound, how does the IC50 read?
Answer: The IC50 was 66.8 nM.

Question: Which IC50 does the source give for `C[C@H](c1ccc(C#N)cc1)n1c(N2CCC[C@@H](N)C2)nc2ccccc21` [Example 398, 4-((R)-1-(2-((R)-3-aminopiperidin-1-yl)-1H-benzo[d]imidazol-1-yl)ethyl)benzonitrile] here?
Answer: The IC50 was 87.4 nM.

Question: `CN(C)C(=O)Cn1c(N2CC[C@@H](F)[C@H](N)C2)nc2ccc(OC(F)(F)F)cc21` [Example 468, 2-(2-((3R,4R)-3-amino-4-fluoropiperidin-1-yl)-6-(trifluoromethoxy)-1H-benzo[d]imidazol-1-yl)-N,N-dimethylacetamide] was tested. Which IC50 did it give?
Answer: Its IC50 is 178 nM.

Question: With `C[C@H](c1ccc(F)cc1F)n1c(N2CC[C@@H](F)[C@H](N)C2)nc2cc(F)c(F)cc21` [Example 330, (3R,4R)-1-(1-((1R)-1-(2,4-difluorophenyl)ethyl)-5,6-difluoro-1H-benzimidazol-2-yl)-4-fluoro-3-piperidinamine] as the compound, how does the IC50 read?
Answer: The IC50 was 669 nM.

Question: With `N[C@@H]1CN(c2nc3ccc(Br)cc3n2CC(=O)N2CCC2)CC[C@H]1F` [Example 455, 2-(2-((3R,4R)-3-amino-4-fluoropiperidin-1-yl)-6-bromo-1H-benzo[d]imidazol-1-yl)-1-(azetidin-1-yl)ethan-1-one] as the compound, how does the IC50 read?
Answer: Its IC50 is 6.56 nM.

Question: Which IC50 does the source give for `CN[C@@H]1CN(c2nc3cc(F)cc(F)c3n2[C@H](C)c2ccc(C#N)cn2)CC[C@H]1F` (single isomer, unassigned) [Example 440] here?
Answer: The IC50 was 1340 nM.

Question: With `CN(CC(F)(F)F)C(=O)Cn1c(N2CC[C@@H](O)[C@H](N)C2)nc2ccc(F)cc21` [Example 481, 2-(2-((3R,4R)-3-amino-4-hydroxypiperidin-1-yl)-6-fluoro-1H-benzo[d]imidazol-1-yl)-N-methyl-N-(2,2,2-trifluoroethyl)acetamide] as the compound, how does the IC50 read?
Answer: Its IC50 is 2400 nM.
